Assay results taken from ChEMBL document CHEMBL5512659, “Structure optimizing of flavonoids against both MRSA and VRE” (Eur J Med Chem, 2024).
In brackets after ≈: the same amount, converted by molar mass. Activity calls are given as the source filed them. No cut-off for these calls is given here.

How the values were obtained:
[1] = test system: Staphylococcus aureus; experiment: Antibacterial activity against methicillin resistant Staphylococcus aureus clinical isolate 011; format: functional
[2] = test system: Staphylococcus aureus; experiment: Antibacterial activity against Staphylococcus aureus clinical isolate 31; format: functional
[3] = test system: Staphylococcus aureus; experiment: Antibacterial activity against methicillin resistant Staphylococcus aureus clinical isolate 003; format: functional
[4] = test system: Enterococcus faecalis; experiment: Antibacterial activity against Enterococcus faecalis clinical isolate 13; format: functional
[5] = test system: Enterococcus faecalis; experiment: Antibacterial activity against multidrug resistant Enterococcus faecalis ATCC 51299; format: functional
[6] = test system: Staphylococcus aureus; experiment: Antibacterial activity against Staphylococcus aureus clinical isolate 29; format: functional
[7] = test system: Enterococcus faecalis; experiment: Antibacterial activity against Enterococcus faecalis clinical isolate 7; format: functional
[8] = test system: Staphylococcus aureus; experiment: Antibacterial activity against methicillin resistant Staphylococcus aureus clinical isolate 031; format: functional
[9] = test system: Staphylococcus aureus; experiment: Antibiofilm activity in methicillin resistant Staphylococcus aureus clinical isolate 003 by crystal violet staining based analysis; format: functional
[10] = test system: Enterococcus faecalis; experiment: Antibacterial activity against multidrug resistant Enterococcus faecalis ATCC 51299 infected in cyclophosphamide immunosuppressed mouse model of abdominal infection assessed as eradication of bacterial colonies in liver at 5 mg/kg measured after 60 hrs relative to control; format: functional
[11] = test system: Enterococcus faecalis; experiment: Antibacterial activity against multidrug resistant Enterococcus faecalis ATCC 51299 assessed as resistance development by measuring fold increase in MIC measured after 20 passages; format: functional
[12] = test system: Enterococcus faecalis; experiment: Antibacterial activity against multidrug resistant Enterococcus faecalis ATCC 51299 infected in cyclophosphamide immunosuppressed mouse model of abdominal infection assessed as eradication of bacterial colonies in ascites at 5 mg/kg measured after 60 hrs relative to control; format: functional
[13] = test system: Enterococcus faecalis; experiment: Antibiofilm activity in multidrug resistant Enterococcus faecalis ATCC 51299 by crystal violet staining based analysis; format: functional
[14] = test system: Enterococcus faecalis; experiment: Antibacterial activity against multidrug resistant Enterococcus faecalis ATCC 51299 infected in cyclophosphamide immunosuppressed mouse model of abdominal infection assessed as eradication of bacterial colonies in kidney at 5 mg/kg measured after 60 hrs relative to control; format: functional
[15] = test system: Enterococcus faecalis; experiment: Antibacterial activity against multidrug resistant Enterococcus faecalis ATCC 51299 infected in cyclophosphamide immunosuppressed mouse model of abdominal infection assessed as eradication of bacterial colonies in spleen at 5 mg/kg measured after 60 hrs relative to control; format: functional
[16] = test system: Staphylococcus aureus; experiment: Antibacterial activity against methicillin resistant Staphylococcus aureus clinical isolate 003 infected in cyclophosphamide immunosuppressed mouse model of skin wound infection assessed as wound healing at 5 mg/kg administered for 7 days and measured on day 8; format: functional, organism-based; conditions: time 8.0 day
[17] = Toxicity in Galleria mellonella assessed as survival rate at 10 mg/kg observed after 7 days; format: organism-based; conditions: in vivo, time 7 day
[18] = test system: Staphylococcus aureus; experiment: Antibacterial activity against methicillin resistant Staphylococcus aureus clinical isolate 003 infected in cyclophosphamide immunosuppressed mouse model of skin wound infection assessed as reduction in bacterial load in wound at 5 mg/kg administered for 7 days and measured on day 8 (reference value: 1.6 x 10^8 CFU); format: functional; conditions: time 8 day

Row | SMILES | MIC [1] [µg/mL] | MIC [2] [µg/mL] | MIC [3] [µg/mL] | MIC [4] [µg/mL] | MIC [5] [µg/mL] | MIC [6] [µg/mL] | MIC [7] [µg/mL] | MIC [8] [µg/mL] | MBEC [9] [µg/mL] | Activity [10] [%] | fold change (FC) [11] | Activity [12] [%] | MBEC [13] [µg/mL] | Activity [14] [%] | Activity [15] [%] | Activity [16] | survival at 168 h [17] [%] | Activity [18]
1 | CCCCCCc1c(-c2ccc(OCCCCNCC)cc2OCCCCNCC)oc2cc(OC)cc(O)c2c1=O | 2 (≈ 3.43 µM) | 1 (≈ 1.72 µM) | 1 (≈ 1.72 µM) | 1 (≈ 1.72 µM) | 2 (≈ 3.43 µM) | 2 (≈ 3.43 µM) | 2 (≈ 3.43 µM) | 2 (≈ 3.43 µM) |  |  |  |  |  |  |  |  |  | 
2 | CCCCCCc1c(-c2ccc(OCCCCNCc3ccc(Cl)cc3)cc2OCCCCNCc2ccc(Cl)cc2)oc2cc(OC)cc(O)c2c1=O | 16 (≈ 20.6 µM) | 16 (≈ 20.6 µM) | 32 (≈ 41.2 µM) | 32 (≈ 41.2 µM) | 32 (≈ 41.2 µM) | 32 (≈ 41.2 µM) | 32 (≈ 41.2 µM) | 32 (≈ 41.2 µM) |  |  |  |  |  |  |  |  |  | 
3 | CCCCCCc1c(-c2ccc(OCCCCCCN(C)C)cc2OCCCCCCN(C)C)oc2cc(OC)cc(O)c2c1=O | 4 (≈ 6.26 µM) | 2 (≈ 3.13 µM) | 2 (≈ 3.13 µM) | 1 (≈ 1.57 µM) | 4 (≈ 6.26 µM) | 2 (≈ 3.13 µM) | 4 (≈ 6.26 µM) | 2 (≈ 3.13 µM) |  |  |  |  |  |  |  |  |  | 
4 | CCCCCCc1c(-c2ccc(OCC(=O)CN[C@H](CCCNC(=N)N)C(N)=O)cc2OCC(=O)CN[C@H](CCCNC(=N)N)C(N)=O)oc2cc(OC)cc(O)c2c1=O | 32 (≈ 38.1 µM) | 8 (≈ 9.54 µM) | 8 (≈ 9.54 µM) | > 64 | > 64 | 32 (≈ 38.1 µM) | > 64 | 8 (≈ 9.54 µM) |  |  |  |  |  |  |  |  |  | 
5 | CCCCCCc1c(-c2ccc(OCCCCNCCc3ccccc3)cc2OCCCCNCCc2ccccc2)oc2cc(OC)cc(O)c2c1=O | 4 (≈ 5.44 µM) | 4 (≈ 5.44 µM) | 4 (≈ 5.44 µM) | 4 (≈ 5.44 µM) | 4 (≈ 5.44 µM) | 8 (≈ 10.9 µM) | 8 (≈ 10.9 µM) | 4 (≈ 5.44 µM) |  |  |  |  |  |  |  |  |  | 
6 | CCCCCCc1c(-c2ccc(OCCCCNCc3ccc(C(F)(F)F)cc3)cc2OCCCCNCc2ccc(C(F)(F)F)cc2)oc2cc(OC)cc(O)c2c1=O | 8 (≈ 9.49 µM) | 8 (≈ 9.49 µM) | 16 (≈ 19 µM) | 8 (≈ 9.49 µM) | 16 (≈ 19 µM) | 16 (≈ 19 µM) | 32 (≈ 38 µM) | 8 (≈ 9.49 µM) |  |  |  |  |  |  |  |  |  | 
7 | CCCCCCc1c(-c2ccc(OCCCCN(CCC)CCC)cc2OCCCCN(CCC)CCC)oc2cc(OC)cc(O)c2c1=O | 8 (≈ 11.5 µM) | 8 (≈ 11.5 µM) | 8 (≈ 11.5 µM) | 16 (≈ 23 µM) | 16 (≈ 23 µM) | 16 (≈ 23 µM) | 16 (≈ 23 µM) | 16 (≈ 23 µM) |  |  |  |  |  |  |  |  |  | 
8 | CC1(C)S[C@@H]2[C@H](NC(=O)[C@H](N)c3ccccc3)C(=O)N2[C@H]1C(=O)O [AMPICILLIN] | > 128 | 2 (≈ 5.72 µM) | > 128 | 2 (≈ 5.72 µM) | 2 (≈ 5.72 µM) | 2 (≈ 5.72 µM) | 2 (≈ 5.72 µM) | > 128 | >256 | 90.58 | 16 | 89.18 | >256 | 95.99 | 83.11 |  |  | 
9 | CCCCCCc1c(-c2ccc(OCCCCNCCC)cc2OCCCCNCCC)oc2cc(OC)cc(O)c2c1=O | 2 (≈ 3.27 µM) | 2 (≈ 3.27 µM) | 2 (≈ 3.27 µM) | 2 (≈ 3.27 µM) | 2 (≈ 3.27 µM) | 2 (≈ 3.27 µM) | 2 (≈ 3.27 µM) | 2 (≈ 3.27 µM) |  |  |  |  |  |  |  |  |  | 
10 | CCCCCCc1c(-c2ccc(O)cc2O)oc2cc(OC)cc(O)c2c1=O | 4 (≈ 10.4 µM) | 4 (≈ 10.4 µM) | 4 (≈ 10.4 µM) | 8 (≈ 20.8 µM) | 8 (≈ 20.8 µM) | 4 (≈ 10.4 µM) | 4 (≈ 10.4 µM) | 4 (≈ 10.4 µM) |  |  |  |  |  |  |  |  |  | 
11 | CCCCCCc1c(-c2ccc(OCCCCN(CC)CC)cc2OCCCCN(CC)CC)oc2cc(OC)cc(O)c2c1=O | 2 (≈ 3.13 µM) | 1 (≈ 1.57 µM) | 2 (≈ 3.13 µM) | 2 (≈ 3.13 µM) | 4 (≈ 6.26 µM) | 2 (≈ 3.13 µM) | 4 (≈ 6.26 µM) | 2 (≈ 3.13 µM) |  |  |  |  |  |  |  |  |  | 
12 | CCCCCCc1c(-c2ccc(OCCCCNC3CCCCC3)cc2OCCCCNC2CCCCC2)oc2cc(OC)cc(O)c2c1=O | 2 (≈ 2.89 µM) | 2 (≈ 2.89 µM) | 1 (≈ 1.45 µM) | 1 (≈ 1.45 µM) | 2 (≈ 2.89 µM) | 1 (≈ 1.45 µM) | 1 (≈ 1.45 µM) | 4 (≈ 5.79 µM) |  |  |  |  |  |  |  |  |  | 
13 | CCCCCCc1c(-c2ccc(OCCN(C)C)cc2OCCN(C)C)oc2cc(OC)cc(O)c2c1=O | 2 (≈ 3.8 µM) | 2 (≈ 3.8 µM) | 1 (≈ 1.9 µM) | 2 (≈ 3.8 µM) | 4 (≈ 7.59 µM) | 1 (≈ 1.9 µM) | 4 (≈ 7.59 µM) | 4 (≈ 7.59 µM) |  |  |  |  |  |  |  |  |  | 
14 | CN[C@H](CC(C)C)C(=O)N[C@H]1C(=O)N[C@@H](CC(N)=O)C(=O)N[C@H]2C(=O)N[C@H]3C(=O)N[C@H](C(=O)N[C@H](C(=O)O)c4cc(O)cc(O)c4-c4cc3ccc4O)[C@H](O)c3ccc(c(Cl)c3)Oc3cc2cc(c3O[C@@H]2O[C@H](CO)[C@@H](O)[C@H](O)[C@H]2O[C@H]2C[C@](C)(N)[C@H](O)[C@H](C)O2)Oc2ccc(cc2Cl)[C@H]1O [VANCOMYCIN] |  |  |  | 2 (≈ 1.38 µM) | > 128 |  |  |  | >256 |  |  |  | >256 |  |  | Active | 80 | 5.1 10^6CFU
15 | CCCCCCc1c(-c2ccc(OCCCCNCc3ccco3)cc2OCCCCNCc2ccco2)oc2cc(OC)cc(O)c2c1=O | 2 (≈ 2.91 µM) | 4 (≈ 5.82 µM) | 2 (≈ 2.91 µM) | 2 (≈ 2.91 µM) | 4 (≈ 5.82 µM) | 2 (≈ 2.91 µM) | 4 (≈ 5.82 µM) | 4 (≈ 5.82 µM) |  |  |  |  |  |  |  |  |  | 
16 | CCCCCCc1c(-c2ccc(OCCCCNCc3ccc(F)cc3)cc2OCCCCNCc2ccc(F)cc2)oc2cc(OC)cc(O)c2c1=O | 16 (≈ 21.5 µM) | 8 (≈ 10.8 µM) | 16 (≈ 21.5 µM) | 8 (≈ 10.8 µM) | 16 (≈ 21.5 µM) | 16 (≈ 21.5 µM) | 32 (≈ 43.1 µM) | 16 (≈ 21.5 µM) |  |  |  |  |  |  |  |  |  | 
17 | CCCCCCNCCCCOc1ccc(-c2oc3cc(OC)cc(O)c3c(=O)c2CCCCCC)c(OCCCCNCCCCCC)c1 | 16 (≈ 23 µM) | 4 (≈ 5.76 µM) | 8 (≈ 11.5 µM) | 64 (≈ 92.1 µM) | 64 (≈ 92.1 µM) | 16 (≈ 23 µM) | 32 (≈ 46 µM) | 8 (≈ 11.5 µM) |  |  |  |  |  |  |  |  |  | 
